Counter-ions that a name gives are not always drawn.
Columns and labels:
[1] = solubility in water and ethanol; assay type: physicochemical
Procedure: To 50 mls. of boiling water was added 27.2 grams (0.1 mole) of procaine HCl with stirring until completely dissolved. With stirring was added 12.3 grams (0.1 mole) of nicotinic acid. This mixture was heated at the boiling point until clear. The solution was allowed to cool and a white crystalline precipitate formed which was separated in a Buchner funnel and washed twice with […] of cold distilled water. […] In contrast, a 1:1 molar mixture of procaine HCl and nicotinic acid melts at 145°-150° C.
Into a hot solution of 50 mls of ethanol and 30 mls of water was dissolved 2.72 grams (0.01 mole) of procaine HCl. To this was added 2.44 grams (0.01 mole) of biotin and heat was maintained until the ingredients reacted and the solution cleared. On cooling, crystallization took place easily. White crystalline platelets were filtered, washed and dried.

plasma cholinesterase = details: once absorbed; into PABA and DEAE; cited from earlier work
[2] = hydrochloride salt form; cited from earlier work
[3] = 1.3-6.5 moles of caffeine per mole of procaine, aqueous solutions; cited from earlier work
[4] = unlike other mental stimulants such as amphetamines; cited from earlier work

In the case of `CCN(CC)CCOC(=O)c1ccc(N)cc1` [II, 1:1 Complex of Procaine HCl and Nicotinic Acid], the “solubility in water and 95% ethanol” value ([1]; water and 95% ethanol) is reported as “moderately soluble”.

For `CCN(CC)CCOC(=O)c1ccc(N)cc1` [Procaine hydrochloride, procaine hydrochloride], the “hydrolysis by plasma cholinesterase” value (plasma cholinesterase) is given as “rapidly hydrolyzed” and the solubility in water [2] is given as “soluble in water”.

For `CCN(CC)CCOC(=O)c1ccc(N)cc1` [IV, 1:1 Complex of Procaine HCl and Biotin], the “solubility in water and ethanol” value ([1]; water and ethanol) was “partly soluble”.

For `Cn1c(=O)c2c(ncn2C)n(C)c1=O` [caffeine], the “inhibition of procaine hydrolysis” value [3] is given as “shown to inhibit procaine hydrolysis”.

For `CCN(CC)CCO` [DEAE, diethylaminoethanol], the adverse side effects [4] is listed as “no adverse side effects such as depression”.

Source: patent US5254686A, “Procaine double salt complexes” (priority 1992, dated 1993)
